Measured values published in ChEMBL document CHEMBL1201862, “PubChem BioAssay data set” (2004).
Activity calls are given as the source filed them.

Assays:
[1] = target: Lysosomal acid glucosylceramidase (Homo sapiens, UniProt P04062); assay: Dose response cell-based high throughput screening assay to identify enhancers of beta-glucosidase activity. [Related pubchem assays: 784 ]; format: functional
[2] = target: NADPH oxidase 1 (Homo sapiens, UniProt Q9Y5S8); format: functional, cell-based;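 note: Cell-based assay with luminescence read-out, IC50 derived from inhibitor dose-response curves; intracellular ROS from endogenous NOX1 in intact HT29 colon cancer cells; potency of inhibitors that lower the ROS luminescence signal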
[3] = target: Photoreceptor-specific nuclear receptor (Homo sapiens, UniProt Q9Y5X4); format: functional;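 note: potency for compounds that break the NR2E3 corepressor complex and count as activators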
[4] = target: Peroxisome proliferator-activated receptor gamma/Nuclear receptor corepressor 2 (Homo sapiens, UniProt P37231+Q9Y618); format: functional
[5] = target: T1, Alkaline phosphatase, tissue-nonspecific isozyme (Homo sapiens, UniProt P05186)
T1 sequence (P05186 whole entry): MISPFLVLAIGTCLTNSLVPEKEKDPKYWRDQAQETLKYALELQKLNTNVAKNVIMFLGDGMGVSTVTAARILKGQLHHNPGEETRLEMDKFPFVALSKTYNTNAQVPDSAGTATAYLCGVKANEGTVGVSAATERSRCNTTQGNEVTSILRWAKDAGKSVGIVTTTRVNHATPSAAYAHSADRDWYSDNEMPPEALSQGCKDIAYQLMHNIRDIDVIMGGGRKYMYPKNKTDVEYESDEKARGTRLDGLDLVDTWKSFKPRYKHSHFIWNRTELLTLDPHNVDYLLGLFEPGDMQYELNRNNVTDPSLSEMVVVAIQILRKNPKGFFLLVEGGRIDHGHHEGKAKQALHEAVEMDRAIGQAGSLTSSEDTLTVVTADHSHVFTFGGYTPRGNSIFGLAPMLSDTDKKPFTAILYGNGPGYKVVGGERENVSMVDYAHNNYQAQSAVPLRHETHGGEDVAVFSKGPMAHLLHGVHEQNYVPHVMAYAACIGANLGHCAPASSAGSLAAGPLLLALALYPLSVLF

[6] = target: Neuropeptides B/W receptor type 1 (Homo sapiens, UniProt P48145); assay: Fluorescence-based dose response cell-based high throughput screening assay to identify antagonists of the G-protein coupled receptor 7 (GPR7). [Related pubchem assays: 1952 (Screening assay (GPR7 antagonists).), 1880 (Summary AID.)]; format: functional
[7] = target: T2, Neuropeptide Y receptor type 2 (Homo sapiens, UniProt P49146); assay: NPY-Y2 antagonist potency, selectivity check, dose response, counter-screen for NPY-Y1 antagonist project, cell-based (AID 1278); format: functional
T2 sequence (P49146 whole entry): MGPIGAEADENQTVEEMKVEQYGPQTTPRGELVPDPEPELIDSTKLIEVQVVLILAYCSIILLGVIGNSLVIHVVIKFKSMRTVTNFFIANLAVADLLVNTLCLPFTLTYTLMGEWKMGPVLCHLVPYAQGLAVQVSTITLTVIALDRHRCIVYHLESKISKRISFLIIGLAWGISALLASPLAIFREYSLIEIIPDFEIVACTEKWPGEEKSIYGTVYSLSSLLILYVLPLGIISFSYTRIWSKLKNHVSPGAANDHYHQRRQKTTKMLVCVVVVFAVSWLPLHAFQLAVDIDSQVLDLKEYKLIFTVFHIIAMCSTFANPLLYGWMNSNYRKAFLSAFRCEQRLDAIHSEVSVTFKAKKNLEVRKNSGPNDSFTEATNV

[8] = target: Melanin-concentrating hormone receptor 1 (Homo sapiens, UniProt Q99705); assay: Fluorescence-based counterscreen for antagonists of the G-protein coupled receptor 7 (GPR7): cell-based high throughput dose response assay to identify antagonists of the melanin-concentrating hormone receptor 1 (MCHR1).; format: functional
[9] = target: T3, Neuropeptide Y receptor type 1 (Homo sapiens, UniProt P25929); assay: NPY-Y1 receptor antagonist potency, dose response, cell-based (AID 1277); format: functional
T3 sequence (P25929 whole entry): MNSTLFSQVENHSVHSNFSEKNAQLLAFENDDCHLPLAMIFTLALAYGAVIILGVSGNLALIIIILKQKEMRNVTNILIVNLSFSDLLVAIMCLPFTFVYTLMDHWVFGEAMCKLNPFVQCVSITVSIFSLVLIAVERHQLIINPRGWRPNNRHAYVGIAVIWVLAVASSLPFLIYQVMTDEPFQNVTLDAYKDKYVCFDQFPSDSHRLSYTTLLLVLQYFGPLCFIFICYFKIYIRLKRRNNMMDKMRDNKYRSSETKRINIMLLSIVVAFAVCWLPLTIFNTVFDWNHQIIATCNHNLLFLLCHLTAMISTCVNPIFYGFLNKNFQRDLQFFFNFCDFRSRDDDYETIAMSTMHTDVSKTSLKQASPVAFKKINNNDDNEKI

[10] = tested on: Streptococcus sp. 'group A'; assay: growth inhibition of control SK(-) GAS strain, dose response, counter-screen for streptokinase expression inhibitor project, luminescence, kanamycin, BacTiterGlo, confirmation (AID 1900); format: functional, organism-based
[11] = cells; format: functional, cell-based
[12] = Luminescence-based counterscreen assay for KLF5 inhibitors: dose response cell-based high throughput screening assay to identify cytotoxic compounds using the IEC-6 intestinal epithelial cell line. [Related pubchem assays: 1700 (Primary screen.), 1834 (Confirmation screen.), 1858 (Summary AID.), 1905 (Counterscreen.)]; format: functional
[13] = cells; format: functional, cell-based; remark: listed apart in the source
[14] = tested on: Streptococcus; assay: Group A Streptococcus viability loss, dose response, counter-screen for streptokinase expression inhibitor project, luminescence, BacTiterGlo (AID 1915); format: functional, organism-based;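 note: potency for reduction of bacterial viability or growth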
[15] = target: Nonstructural protein 1 (Influenza A virus, UniProt Q194T2); format: functional, Influenza A virus (A/California/07/2009(H1N1))
[16] = target: Glyceraldehyde-3-phosphate dehydrogenase (Homo sapiens, UniProt P04406)
[17] = target: T4, Bcl-2-related protein A1 (Mus musculus, UniProt Q07440); assay: Bfl-1 inhibitors blocking BH3 peptide binding, confirmation, biochemical, TR-FRET, mouse Bfl-1 (AID 621);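 note: TR-FRET binding of GST-Bfl-1 to FITC-labelled Bid peptide via terbium antibody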
T4 sequence (Q07440 whole entry): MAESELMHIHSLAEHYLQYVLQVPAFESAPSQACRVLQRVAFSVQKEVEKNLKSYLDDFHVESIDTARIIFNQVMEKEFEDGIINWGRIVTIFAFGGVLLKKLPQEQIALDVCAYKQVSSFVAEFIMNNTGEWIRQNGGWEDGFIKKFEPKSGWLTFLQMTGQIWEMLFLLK

[18] = target: T4, Bcl-2-related protein A1; assay: Bfl-1 binding inhibitors, SAR follow-up, biochemical, fluorescence polarization (AID 1070)
[19] = target: T5, Nucleotide-binding oligomerization domain-containing protein 1 (Homo sapiens, UniProt Q9Y239); assay: SAR analysis of compounds that inhibit NOD1 - Set 3. [Related pubchem assays (depositor defined):AID1566, AID1575, AID1578, AID1849, AID1852, AID2333, AID2335, AID2466]; format: functional
T5 sequence (Q9Y239 whole entry): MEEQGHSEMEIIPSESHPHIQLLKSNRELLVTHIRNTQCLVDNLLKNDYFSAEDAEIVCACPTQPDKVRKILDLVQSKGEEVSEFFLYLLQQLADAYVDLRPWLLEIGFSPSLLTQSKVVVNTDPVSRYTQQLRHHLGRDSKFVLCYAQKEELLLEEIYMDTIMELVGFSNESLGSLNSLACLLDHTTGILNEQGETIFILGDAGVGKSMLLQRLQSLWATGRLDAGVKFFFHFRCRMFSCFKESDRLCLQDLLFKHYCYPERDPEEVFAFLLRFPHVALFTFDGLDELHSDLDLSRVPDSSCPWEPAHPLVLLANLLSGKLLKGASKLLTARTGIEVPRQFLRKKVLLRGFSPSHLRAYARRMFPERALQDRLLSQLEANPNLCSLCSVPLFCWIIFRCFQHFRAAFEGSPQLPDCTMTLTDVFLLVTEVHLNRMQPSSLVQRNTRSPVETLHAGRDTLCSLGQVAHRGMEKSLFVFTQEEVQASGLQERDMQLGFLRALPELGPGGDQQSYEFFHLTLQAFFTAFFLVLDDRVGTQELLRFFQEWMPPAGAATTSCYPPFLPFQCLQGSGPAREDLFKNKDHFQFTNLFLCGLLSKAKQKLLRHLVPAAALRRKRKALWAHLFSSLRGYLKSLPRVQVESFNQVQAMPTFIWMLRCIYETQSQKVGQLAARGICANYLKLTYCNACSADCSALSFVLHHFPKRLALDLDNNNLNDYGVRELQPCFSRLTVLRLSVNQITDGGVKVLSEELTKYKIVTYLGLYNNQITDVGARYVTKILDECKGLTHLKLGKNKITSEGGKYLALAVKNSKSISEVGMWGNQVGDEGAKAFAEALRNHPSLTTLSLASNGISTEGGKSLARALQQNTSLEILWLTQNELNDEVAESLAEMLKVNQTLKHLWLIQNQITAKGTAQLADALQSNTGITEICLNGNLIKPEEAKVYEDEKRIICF

[20] = target: Tumor necrosis factor (Homo sapiens, UniProt P01375); assay: TNFa-triggered NF-kB activation inhibitors, SAR follow-up, cell-based, set 3 (AID 2801); format: functional
[21] = tested on: HEK293; assay: SAR analysis of compounds that are cytotoxic to HEK293 - Set 3. [Related pubchem assays (depositor defined):AID1575, AID1578, AID1848, AID1849, AID2001, AID2333, AID2334, AID2335, AID2337, AID2469]; format: functional, cell-based; details: Homo sapiens
[22] = target: Nucleotide-binding oligomerization domain-containing protein 2 (Homo sapiens, UniProt Q9HC29); assay: NOD2 signaling inhibitors, analog potency, SAR follow-up, cell-based, set 3 (AID 2799); format: functional
[23] = target: T6, Bcl-2-like protein 10 (Homo sapiens, UniProt Q9HD36); assay: Biochemical TR3 FP assay of Bcl-B inhibitor potency, EC50 (AID 1243); format: functional
T6 sequence (Q9HD36 whole entry): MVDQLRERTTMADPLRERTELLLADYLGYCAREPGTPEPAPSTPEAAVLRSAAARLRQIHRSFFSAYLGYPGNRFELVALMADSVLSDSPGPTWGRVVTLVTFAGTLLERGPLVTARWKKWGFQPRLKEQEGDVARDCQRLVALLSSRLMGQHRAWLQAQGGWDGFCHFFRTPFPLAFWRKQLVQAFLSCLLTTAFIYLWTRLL

[24] = polyadenylation inhibitors in yeast reporter, dose response, luminescence, S. cerevisiae SKY197-pL101 (AID 2525); format: functional, cell-based
[25] = Luminescence Cell-Based Dose Confirmation HTS to Identify Inhibitors of Polyadenylation.; format: functional
[26] = target: Protein-tyrosine kinase 2-beta (Homo sapiens, UniProt Q14289);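 note: potency of inhibitors of PYK2 kinase phosphorylation of poly-GT substrate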
[27] = tested on: Vero; assay: cytotoxicity of synthesized analogs in Vero 76, SAR follow-up, cytotoxicity control for West Nile virus antiviral project, Vero 76 cells (AID 2414); format: functional; details: Chlorocebus sabaeus
[28] = tested on: Vero; assay: cytotoxicity of synthesized analogs in Vero cells, SAR follow-up, cytotoxicity control for West Nile virus antiviral project, cell-based, set II (AID 2402); format: functional; details: Chlorocebus sabaeus
[29] = A Cell Based Assay for the Identification of Probe candidate Compounds with Anti- Venezuelan Equine Encephalitis virus. [Related pubchem assays: 2409, 2419, 1621, 2238, 2405, 2024, 2065, 2402, 2414, 1635, 1650, 2244 ]; format: functional

Chain of Photoreceptor-specific nuclear receptor (Q9Y5X4 whole entry): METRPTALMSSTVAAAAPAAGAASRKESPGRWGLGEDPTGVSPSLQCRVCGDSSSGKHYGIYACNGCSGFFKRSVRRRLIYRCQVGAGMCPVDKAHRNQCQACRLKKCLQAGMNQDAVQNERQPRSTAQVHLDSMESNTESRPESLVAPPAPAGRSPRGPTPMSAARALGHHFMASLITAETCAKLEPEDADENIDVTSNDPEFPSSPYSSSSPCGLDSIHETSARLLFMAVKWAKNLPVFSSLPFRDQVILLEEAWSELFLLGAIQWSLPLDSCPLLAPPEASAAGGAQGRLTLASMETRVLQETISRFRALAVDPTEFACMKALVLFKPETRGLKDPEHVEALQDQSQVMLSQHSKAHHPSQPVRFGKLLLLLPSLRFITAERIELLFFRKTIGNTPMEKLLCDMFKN
Chain of Protein-tyrosine kinase 2-beta (Q14289 whole entry): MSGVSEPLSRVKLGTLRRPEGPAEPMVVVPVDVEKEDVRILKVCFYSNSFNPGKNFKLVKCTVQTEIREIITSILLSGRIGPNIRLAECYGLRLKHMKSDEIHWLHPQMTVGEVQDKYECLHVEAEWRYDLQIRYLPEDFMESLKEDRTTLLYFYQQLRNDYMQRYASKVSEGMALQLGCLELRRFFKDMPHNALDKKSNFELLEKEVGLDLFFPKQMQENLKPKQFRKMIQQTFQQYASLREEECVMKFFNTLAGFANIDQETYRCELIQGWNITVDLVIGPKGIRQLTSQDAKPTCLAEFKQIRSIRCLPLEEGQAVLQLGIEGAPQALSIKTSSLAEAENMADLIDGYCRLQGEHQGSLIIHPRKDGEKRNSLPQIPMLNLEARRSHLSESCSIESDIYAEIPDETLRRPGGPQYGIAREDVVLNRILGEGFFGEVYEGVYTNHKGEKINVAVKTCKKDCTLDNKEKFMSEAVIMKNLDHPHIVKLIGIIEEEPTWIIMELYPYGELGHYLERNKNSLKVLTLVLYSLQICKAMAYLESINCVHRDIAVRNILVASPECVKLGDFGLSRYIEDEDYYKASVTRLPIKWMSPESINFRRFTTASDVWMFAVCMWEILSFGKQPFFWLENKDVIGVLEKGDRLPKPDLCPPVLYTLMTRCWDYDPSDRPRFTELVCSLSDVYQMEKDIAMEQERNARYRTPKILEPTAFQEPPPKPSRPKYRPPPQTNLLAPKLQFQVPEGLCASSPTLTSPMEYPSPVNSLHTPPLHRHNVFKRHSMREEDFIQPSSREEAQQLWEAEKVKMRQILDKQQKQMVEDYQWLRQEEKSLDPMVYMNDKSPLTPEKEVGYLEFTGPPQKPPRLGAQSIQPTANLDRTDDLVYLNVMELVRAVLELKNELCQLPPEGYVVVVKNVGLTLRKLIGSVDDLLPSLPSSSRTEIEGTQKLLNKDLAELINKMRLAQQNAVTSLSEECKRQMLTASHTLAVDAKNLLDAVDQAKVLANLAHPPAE
Chain of NADPH oxidase 1 (Q9Y5S8 whole entry): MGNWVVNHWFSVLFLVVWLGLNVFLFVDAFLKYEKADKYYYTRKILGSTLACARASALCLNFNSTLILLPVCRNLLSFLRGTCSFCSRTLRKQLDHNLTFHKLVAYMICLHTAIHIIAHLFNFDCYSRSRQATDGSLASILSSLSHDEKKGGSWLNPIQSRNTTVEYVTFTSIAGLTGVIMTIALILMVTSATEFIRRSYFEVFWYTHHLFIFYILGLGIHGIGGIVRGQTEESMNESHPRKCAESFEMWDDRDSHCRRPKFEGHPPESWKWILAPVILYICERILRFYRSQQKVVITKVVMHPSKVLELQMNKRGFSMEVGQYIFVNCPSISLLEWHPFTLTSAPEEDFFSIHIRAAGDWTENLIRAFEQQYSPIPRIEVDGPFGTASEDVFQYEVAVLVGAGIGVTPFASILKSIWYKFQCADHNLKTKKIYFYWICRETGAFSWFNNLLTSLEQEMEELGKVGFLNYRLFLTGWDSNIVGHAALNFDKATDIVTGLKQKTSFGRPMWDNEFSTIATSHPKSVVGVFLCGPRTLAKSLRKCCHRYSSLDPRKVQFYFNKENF
Chain of Nucleotide-binding oligomerization domain-containing protein 2 (Q9HC29 whole entry, the tested form may be a part): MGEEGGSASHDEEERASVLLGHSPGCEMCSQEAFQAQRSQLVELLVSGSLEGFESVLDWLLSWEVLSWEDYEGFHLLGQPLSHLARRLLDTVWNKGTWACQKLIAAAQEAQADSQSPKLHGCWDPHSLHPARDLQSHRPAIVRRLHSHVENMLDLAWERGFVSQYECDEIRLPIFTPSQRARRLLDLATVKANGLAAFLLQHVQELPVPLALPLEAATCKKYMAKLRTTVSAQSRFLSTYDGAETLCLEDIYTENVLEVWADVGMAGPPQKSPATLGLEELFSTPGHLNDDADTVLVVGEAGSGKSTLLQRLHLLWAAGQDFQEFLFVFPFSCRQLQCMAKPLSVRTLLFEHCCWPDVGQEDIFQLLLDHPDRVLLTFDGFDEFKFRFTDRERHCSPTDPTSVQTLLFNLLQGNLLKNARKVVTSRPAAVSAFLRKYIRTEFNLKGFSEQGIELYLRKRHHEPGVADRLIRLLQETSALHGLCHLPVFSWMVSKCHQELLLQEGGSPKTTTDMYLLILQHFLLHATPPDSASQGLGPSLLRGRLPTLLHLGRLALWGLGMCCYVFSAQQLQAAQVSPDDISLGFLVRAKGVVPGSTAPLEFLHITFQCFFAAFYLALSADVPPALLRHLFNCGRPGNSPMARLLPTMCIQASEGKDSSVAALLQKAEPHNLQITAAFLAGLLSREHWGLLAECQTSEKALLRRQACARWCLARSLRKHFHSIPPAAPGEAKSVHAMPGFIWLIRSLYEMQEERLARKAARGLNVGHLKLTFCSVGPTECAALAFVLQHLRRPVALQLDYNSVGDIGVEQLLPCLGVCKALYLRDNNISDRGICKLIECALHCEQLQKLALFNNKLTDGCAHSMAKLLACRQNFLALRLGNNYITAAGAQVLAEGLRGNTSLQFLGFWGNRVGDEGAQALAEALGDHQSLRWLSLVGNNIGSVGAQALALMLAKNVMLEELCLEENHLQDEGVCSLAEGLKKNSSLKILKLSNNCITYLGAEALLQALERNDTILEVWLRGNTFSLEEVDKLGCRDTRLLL
Chain of Glyceraldehyde-3-phosphate dehydrogenase (P04406 whole entry): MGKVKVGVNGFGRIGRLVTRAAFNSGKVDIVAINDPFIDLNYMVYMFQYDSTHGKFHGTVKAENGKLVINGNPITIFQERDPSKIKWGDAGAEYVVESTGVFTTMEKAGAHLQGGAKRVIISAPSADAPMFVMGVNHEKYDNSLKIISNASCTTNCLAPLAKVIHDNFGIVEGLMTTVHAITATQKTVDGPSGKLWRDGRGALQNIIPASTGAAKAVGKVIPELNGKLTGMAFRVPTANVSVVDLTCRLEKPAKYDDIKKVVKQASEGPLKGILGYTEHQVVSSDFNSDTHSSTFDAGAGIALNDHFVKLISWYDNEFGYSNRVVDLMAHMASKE
Chain of Neuropeptides B/W receptor type 1 (P48145 whole entry): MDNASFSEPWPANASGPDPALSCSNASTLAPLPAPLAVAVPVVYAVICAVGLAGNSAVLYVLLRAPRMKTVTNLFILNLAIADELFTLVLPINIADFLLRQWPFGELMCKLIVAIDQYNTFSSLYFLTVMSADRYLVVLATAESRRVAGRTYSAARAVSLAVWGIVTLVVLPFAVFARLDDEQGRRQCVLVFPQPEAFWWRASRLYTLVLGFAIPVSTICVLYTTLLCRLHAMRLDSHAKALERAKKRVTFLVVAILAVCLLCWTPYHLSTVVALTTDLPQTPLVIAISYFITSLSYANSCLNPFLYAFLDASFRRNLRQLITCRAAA
Chain of Lysosomal acid glucosylceramidase (P04062 whole entry): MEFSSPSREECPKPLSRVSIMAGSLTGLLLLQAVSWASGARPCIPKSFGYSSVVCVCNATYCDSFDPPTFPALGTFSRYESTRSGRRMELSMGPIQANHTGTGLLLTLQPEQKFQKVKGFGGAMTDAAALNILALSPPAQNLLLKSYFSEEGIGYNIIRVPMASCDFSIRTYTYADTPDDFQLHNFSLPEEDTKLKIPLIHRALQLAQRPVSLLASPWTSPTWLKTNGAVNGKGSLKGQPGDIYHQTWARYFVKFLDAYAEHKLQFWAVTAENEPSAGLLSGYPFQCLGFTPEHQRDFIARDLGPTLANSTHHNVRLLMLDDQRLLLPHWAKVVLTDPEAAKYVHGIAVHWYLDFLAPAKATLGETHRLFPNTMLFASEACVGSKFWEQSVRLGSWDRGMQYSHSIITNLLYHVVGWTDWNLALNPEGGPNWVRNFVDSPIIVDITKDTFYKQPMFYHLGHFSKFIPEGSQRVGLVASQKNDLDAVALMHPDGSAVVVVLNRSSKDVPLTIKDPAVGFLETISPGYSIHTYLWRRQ
Chain of Nonstructural protein 1 (Q194T2 whole entry): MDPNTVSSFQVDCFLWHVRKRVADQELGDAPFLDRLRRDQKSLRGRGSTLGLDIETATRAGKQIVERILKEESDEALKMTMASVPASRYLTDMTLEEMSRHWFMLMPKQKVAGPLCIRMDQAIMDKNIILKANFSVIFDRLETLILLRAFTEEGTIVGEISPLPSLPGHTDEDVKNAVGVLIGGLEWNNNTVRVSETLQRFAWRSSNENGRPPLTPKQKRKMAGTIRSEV
Chain of Tumor necrosis factor (P01375 whole entry): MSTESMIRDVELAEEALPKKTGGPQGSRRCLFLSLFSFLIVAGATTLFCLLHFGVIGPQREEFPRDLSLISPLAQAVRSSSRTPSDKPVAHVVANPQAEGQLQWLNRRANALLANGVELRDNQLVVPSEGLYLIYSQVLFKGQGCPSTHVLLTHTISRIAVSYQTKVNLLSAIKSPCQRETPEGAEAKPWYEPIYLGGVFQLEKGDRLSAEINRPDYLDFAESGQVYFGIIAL

NC(=NO)c1nc(N2CCCCC2)nc(N2CCCCC2)n1
EC50 [1]: > 50 µM (not active)

c1ccc(-c2nc(-c3ccccn3)c(-c3ccccn3)[nH]2)cc1
IC50 [2]: > 17 µM (not active)

Cc1ccccc1CNc1ncnc2cc(Cl)ccc12
IC50 [3]: 3.84 µM (active)
IC50 [4]: 2.38 µM (active)

Cn1c(=O)c2c(nc(N/N=C/c3ccco3)n2C)n(C)c1=O
EC50 [5]: 88.9 µM (not active)

CC(NC(=O)Cn1c(NCCO)nc2ccccc21)C1CC2CCC1C2 (centres undefined)
IC50 [6]: > 14.6 µM (not active)
IC50 [7]: > 35 µM (not active)
IC50 [8]: > 43.8 µM (not active)
IC50 [9]: > 35 µM (not active)

O=C(N/N=C/c1cc(O)ccc1Br)c1cccnc1
EC50 [10]: 1.85 µM (active)
EC50 [11]: 165 µM (active)
IC50 [12]: 4.8 µM (active)
EC50 [13]: > 350 µM (not active)
EC50 [14]: 4.86 µM (active)
IC50 [15]: 6.35 µM (active)

Nc1cc(-c2ccc(Cl)cc2)nn1S(=O)(=O)c1c(F)c(F)c(F)c(F)c1F
IC50 [16]: > 100 µM (not active)
IC50 [17]: > 100 µM (not active)
IC50 [18]: > 100 µM (not active)
IC50 [19]: > 20 µM (inactive)
IC50 [20]: > 20 µM (inactive)
IC50 [21]: > 20 µM (inactive)
IC50 [22]: > 20 µM (inactive)

O=C(COc1ccc(Cl)cc1Cl)Nc1nnc(-c2ccco2)s1
EC50 [23]: 17 µM (active)

O=C(COC(=O)Cc1ccc(S(=O)(=O)N2CCOCC2)s1)NCc1ccc(Cl)cc1
EC50 [24]: > 500 µM (not active)
EC50 [25]: 99.6 µM (active)

O=C(O)c1ccccc1OCCOCCOc1ccccc1C(=O)O
IC50 [26]: 18.2 µM (not active)

Cc1ccc2nc(SCC(=O)Nc3ccc4c(c3)CCC4)n(-c3ccccc3)c(=O)c2c1
CC50 [27]: 130 µM (active)
CC50 [28]: > 200 µM (active)
IC50 [29]: 7.73 µM (active)
